Read-outs that look alike come from different tables or passages of the source. Where no end group is shown, it is not given here. [ ]: non-standard residue; d: D form. pT = C[C@@H](OP(=O)(O)O)[C@H](N)C(=O)O; pS = N[C@@H](COP(=O)(O)O)C(=O)O
Columns and labels:
Pin1 = Pin1 (Homo sapiens, UniProt Q13526); assay: ELISA peptide binding to Pin1; conditions: for Binding (OD@405 nm), tau peptides: Pin1; for Binding (OD@405 nm), Amyloid Precursor Protein Peptide: protein not printed in these lines, text: Pin1 WW-domain
Sequence of Pin1 (Q13526 whole entry): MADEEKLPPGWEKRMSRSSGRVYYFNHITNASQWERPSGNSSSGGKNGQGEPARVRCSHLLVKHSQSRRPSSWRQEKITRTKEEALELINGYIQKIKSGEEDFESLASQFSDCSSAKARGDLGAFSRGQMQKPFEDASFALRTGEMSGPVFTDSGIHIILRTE

Pin1 and its WW-domain = assay: Peptide competition of Pin1 / WW-domain binding to MPM-2 antigens of mitotic extracts; set-up: species or system human; conditions: for competition for phosphoprotein binding (in words): 0, 25, 50, 125, 250, 500 μM peptide
Sequence of Pin1 and its WW-domain (Q13526 1-54 limits assumed): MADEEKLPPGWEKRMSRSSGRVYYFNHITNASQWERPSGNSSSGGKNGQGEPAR
Method: To examine the ability of a phosphopeptide to compete with phosphoproteins for binding to the WW-domain, the Pin1 binding phosphopeptide Pintide (WFYpSPRLKK, SEQ ID NO: 13) (Lu, K. P. et al., U.S. Ser. No. 60/058,164 (1997)) was used in competition assays. A nonphosphorylated counterpart of Pintide ([…], SEQ ID NO: 14) (C-Pintide) was used as a control.
(§1) Pintide and its nonphosphorylated counterpart were synthesized and incubated with GST-Pin1 or the GST-WW-domain of Pin1 in a binding buffer, using established procedures (Shen, M. et al., Genes & Dev 12:706 (1998)). After a 1 hr incubation, mitotic HeLa cell extracts were added and subjected to GST pull down experiments, followed by immunoblotting analysis using the MPM-2 antibody. To obtain semi-quantitative data, films of immunoblots were scanned at the region of 55 kDa, the major Pin1-binding protein, and data analyzed using ImageQuan (ScanJet II CX). The peptide binding constants were measured using a fluorescence polarization assay (Jiskoot, W. et al., Anal Biochem 196:421 (1991)). Peptides were fluorescein labeled at the N-terminus using the Fluorescein Amine Labeling Kit (Pan Vera Corp.) and purified by TLC according to the manufacturer's […]. To prevent nonspecific labeling, a Pintide analogue (WFYpSPFLE) SEQ ID NO: 8 and the nonphosphorylated control were used. Various concentrations of Pin1 and its mutant proteins were incubated with 0.1 μM of the labeled peptides in a binding buffer containing 50 mM HEPES, pH 7.4, 100 mM NaCl, 2% glycerol. Fluorescence polarization values were obtained using a Pan Vera Beacon 2000 system, as described by the manufacturer.

WFYpSPFLE (Pintide) = assay: Fluorescence anisotropy (polarization) binding to fluorescein-labeled phosphorylated Pintide analogue
Description: To determine the affinity of Pin1, and its WW or PPIase domain for phosphopeptides, peptides were labeled with fluorescein and their interactions with Pin1 measured using quantitative fluorescence anisotrophy. To prevent nonspecific labeling, a Pintide analogue (WFYpSPFLE) SEQ ID NO: 9 was used, which binds Pin1 with a high affinity based on the peptide library screen as described by (Lu, K. P. et al., U.S. Ser. No. 60/058,164 (1997), the teachings of which are incorporated herein in their entirety.
as §1

[1] = tested on: MPM-2 antigens (mitotic phosphoproteins) of mitotic HeLa cell extracts; assay: GST pulldown from mitotic HeLa cell extracts, MPM-2 immunoblotting (phosphoprotein-binding activity); conditions: for Phosphoprotein binding activity: GST-fusion proteins with mitotic extracts, MPM2 antibody; for binding to mitotic phosphoproteins / MPM-2 antigens (in words): mitotic HeLa cell extracts
Method: GST-fusion proteins containing the WW-domain, PPIase-domain or the entire Pin 1 protein were prepared and incubated with interphase (G1/S arrested; Control) or dividing (M phase) HeLa cell extracts using well-known procedures (Lu, K. P., et al., Nature 380:544 (1996); (Shen, M., et al., Genes & Devl. 12:706 (1998)). Briefly, HeLa cells were arrested at the G1/S boundary or mitosis by incubation with thymidine and aphidicolin or nocodazole for 16 h, respectively. The cells were lysed and supernatants incubated with 10 μl of agarose beads containing GST-Pin1; GST-WW-domain of Pin1; GST-PPIase domain of Pin1; or control GST for 2 h at 4° C. The phosphorylated precipitated proteins were washed 5 times in buffer containing 1% Triton X-100 before subjecting to immunoblotting analysis using MPM-2 antibody, as described previously (Yaffe, M. B. et al., Science 278:1957 (1997); Schukowski, et al., Biochemistry 37:5566 (1998); Shen, M. et al., Genes & Dev 12:706 (1998)). MPM-2 recognizes a subset of mitotic phosphoproteins including Pin1-binding proteins such as cdc25.
as §1
To examine the effect of Pin1 phosphorylation on Pin1 binding to ligands, Pin1 and Pin1 mutant proteins were incubated with the catalytic subunit of PKA and PKC (a mixture of α, β and γ, UBI) in a kinase reaction buffer containing 500 μM cold ATP at 30° C. for 15 min (Lu, K. P. et al., Anal. Biochem. 196:421 (1991)). The reactions were stopped by adding SDS sample buffer and reaction products separated on SDS-gels, followed by autoradiography. Pin1 proteins were isolated and used to bind MPM-2 antigens from mitotic extracts from HeLa cells, as previously described (Shen, M., et al., Genes & Dev 12:706 (1998)). Experiments were also performed with PKA and PKC, casein kinase, cyclin B/Cdc2 and SRPK1 kinases.

peptide substrate = assay: PPIase activity assay with peptide substrate; assay type: biochemical; conditions: relative to wild-type protein defined as 100%
WFYSPFLE = assay: Fluorescence anisotropy binding to fluorescein-labeled nonphosphorylated control peptide; conditions: nonphosphorylated peptide
phosphorylated tau = assay: GST-Pin1 pulldown of tau; assay type: binding; conditions: AD brain extracts, PHFs or age-matched normal brain extracts
Sequence of phosphorylated tau (P10636 45-216 isoform P10636-2 limits assumed): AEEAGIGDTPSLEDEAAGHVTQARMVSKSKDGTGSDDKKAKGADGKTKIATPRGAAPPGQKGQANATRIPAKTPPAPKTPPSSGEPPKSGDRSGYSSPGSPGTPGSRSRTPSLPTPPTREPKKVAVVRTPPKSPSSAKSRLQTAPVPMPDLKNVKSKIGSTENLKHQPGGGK
Description: Pin1 binds and regulates the function of a defined subset of mitotic phosphoproteins by interacting with conserved phosphorylated Ser/Thr-Pro motifs that are also recognized by MPM-2, a mitosis-specific, phosphorylation-dependent monoclonal antibody (mAb) (Yaffe, M. B. et al., Science 278:1957-1960 (1997); Shen, M. et al., Genes Dev. 12:706-720 (1 998)). Tau is an MPM-2 antigen phosphorylated on multiple Ser/Thr-Pro motifs during mitosis (Illenberger, S. et al., Mol Biol Cell 9:1495-1512 (1998)). Experiments were undertaken to determine whether Pin1 binds tau. Tau isoform was either synthesized by in vitro transcription and translation in the presence of ^35S-Met or produced in bacteria as an N-terminal His-tagged protein, followed by purification using NTA-Ni columns (Yaffe, M. B. et al., Science 278:1957-1960 (1997); Shen, M. et al., Genes Dev. 12:706-720 (1998)). To generate interphase- and mitosis-specific phosphorylated form of tau, tau was incubated with Xenopus interphase and mitotic extracts, respectively (Shen, M. et al., Genes Dev. 12:706-720 (1998)). To prepare Cdc2 phosphorylated tau, purified recombinant tau was incubated with purified cyclin B/Cdc2 (UBI) for 6 to 12 hr at room temperature in a buffer containing 500 μM cold ATP, plus trace [^32P]-ATP in some experiments, (Vincent, I. et al., J Neurosci 17:3588-3598 (1997)).
Pin1 interactions with tau in AD brains were examined using a GST-Pin1 pulldown assay (Shen, M. et al., Genes Dev. 12:706-720 (1998)). Glutathione beads containing GST or GST-Pin1 were incubated with normal or AD brain extracts, or PHFs purified (Vincent, I. J. and Davies, P. Proc Natl Acad Sci USA 89:2878-2882 (1992)), and proteins associated with the beads were subjected to immunoblotting analysis using CP27, which recognizes all forms of tau. Recombinant and mutant Pin1 proteins were produced as N-terminal GST or His-tagged fusion proteins (Shen, M. et al., Genes Dev. 12:706-720 (1998)). PHFs were purified by immunoaffinity chromatography (Vincent, I. J. and Davies, P. Proc Natl Acad Sci USA 89:2878-2882 (1992)).
To determine whether Pin1 interacts with pT231-tau, GST-Pin1 beads were used to isolate tau from AD brain extracts or PHFs and T231 phosphorylation detected using CP9. Tau isolated by Pin1 beads was strongly immunoreactive with CP9. […] Thus, Pin1 binds pT231-tau through its WW-domain.

[2] = competition with MPM2 antigens of mitotic extracts
[3] = high affinity binding site, read-out: WFYpSPFLE Kd(μM) High affinity
[4] = low affinity binding site, read-out: WFYpSPFLE Kd(μM) Low affinity
[5] = fluorescein labeled Pintide, high affinity pSer-binding site in the WW-domain, read-out: Kd for Pintide

Substance: DAGLKESPLQTPTE (DAGLKE[pS]PLQTPTE) [pS-46]
- Binding (OD@405 nm), tau peptides (Pin1): 0.00 OD@405 nm

Substance: WFYpSPRLKK (WFY[pS]PRLKK) [Pintide]
- competition for phosphoprotein binding (in words) (Pin1 and its WW-domain): significantly reduced in a concentration dependent manner
- peptide concentration with complete competition (Pin1 and its WW-domain; [2]): 250 to 500 µM
- peptide concentration with significant competition (Pin1 and its WW-domain; [2]): 50 µM

Substance: PRHLSNVSSTGSIDMV [pS-413] (PRHLSNVS[pS]TGSIDMV)
- Binding (OD@405 nm), tau peptides (Pin1): 0.00 OD@405 nm

Substance: PRHLSNVSSTGSIDMV [pS-412] (PRHLSNV[pS]STGSIDMV)
- Binding (OD@405 nm), tau peptides (Pin1): 0.02 OD@405 nm

Substance: TRIPAKTPPAPKT (also: phosphorylated Thr, place not given here) [pT-175]
- Binding (OD@405 nm), tau peptides (Pin1): 0.00 OD@405 nm

Substance: TSPRHLSNVSSTG (also: phosphoserine, place not given here) [pS-409]
- Binding (OD@405 nm), tau peptides (Pin1): 0.00 OD@405 nm

Substance: Pin1^S18E: Pin1 with Ser-18 mutated to Glu
- Kd (WFYpSPFLE (Pintide); [3]): 1 µM
- Kd (WFYpSPFLE (Pintide); [4]): 12 µM
- Phosphoprotein binding activity [1]: + (binding was detected)
- binding to mitotic phosphoproteins / MPM-2 antigens (in words) [1]: did not affect the ability of Pin1 to bind phosphoproteins
- PPlase Activity (%) (peptide substrate): 98%

Substance: WFYSPRLKK (not fully specified) [C-Pintide, nonphosphorylated counterpart of Pintide, control, reference compound]
- competition for phosphoprotein binding (in words) (Pin1 and its WW-domain): not with the nonphosphorylated peptide

Substance: GSLDNITHVPGGG (GSLDNI[pT]HVPGGG) [pT-361]
- Binding (OD@405 nm), tau peptides (Pin1): 0.00 OD@405 nm

Substance: VRTPPKSPSSAKSR (also: phosphoserine, place not given here) [pS-235]
- Binding (OD@405 nm), tau peptides (Pin1): 0.11 OD@405 nm

Substance: KVAVVRTPPKSPS [T-231]
- Binding (OD@405 nm), tau peptides (Pin1): 0.00 OD@405 nm

Substance: GYSSPGSPGTPGSR (also: phosphoserine, place not given here) [pS-202]
- Binding (OD@405 nm), tau peptides (Pin1): 0.08 OD@405 nm

Substance: VQSKIGSLDNITH (also: phosphoserine, place not given here) [pS-356]
- Binding (OD@405 nm), tau peptides (Pin1): 0.00 OD@405 nm

Substance: KEVDAAVTPEERHLS [pT-668] (KEVDAAV[pT]PEERHLS)
- Binding (OD@405 nm), Amyloid Precursor Protein Peptide (Pin1): 1.81 OD@405 nm

Substance: Pin1^Y23F: Pin1 mutant, Tyr-23 replaced by Phe
- Kd (WFYpSPFLE (Pintide); [5]): 5 µM
- PPlase Activity (%) (peptide substrate): 94%

Substance: GST-Pin1: GST-fusion protein containing the entire Pin1 protein
- Kd (WFYpSPFLE (Pintide); [3]): 1.2 µM
- Kd (WFYpSPFLE (Pintide); [4]): 13 µM
- WFYSPFLE Kd (WFYSPFLE): Not binding
- binding to tau of brain extracts (phosphorylated tau): bound tau present in AD brain extracts or PHFs

Substance: Pin1^R14A: Pin1 with substitution of Arg-14 with Ala
- Kd (WFYpSPFLE (Pintide); [5]): 2 µM
- Kd (WFYpSPFLE (Pintide); [3]): 2 µM
- Kd (WFYpSPFLE (Pintide); [4]): 13.5 µM
- Phosphoprotein binding activity [1]: + (binding was detected)
- binding to mitotic phosphoproteins / MPM-2 antigens (in words) [1]: did not appear to cause a significant change
- PPlase Activity (%) (peptide substrate): 92%

Substance: SRSRTPSLPTPPT (also: phosphoserine, place not given here) [pS-214]
- Binding (OD@405 nm), tau peptides (Pin1): 0.00 OD@405 nm

Substance: Pin1^S16A: Pin1 with Ser-16 substituted with Ala
- Kd (WFYpSPFLE (Pintide); [5]): 1.2 µM
- Kd (WFYpSPFLE (Pintide); [3]): 1.2 µM
- Kd (WFYpSPFLE (Pintide); [4]): 10.5 µM
- Phosphoprotein binding activity [1]: + (binding was detected)
- binding to mitotic phosphoproteins / MPM-2 antigens (in words) [1]: interacted with all Pin1 ligands
- effect of phosphorylation by PKA on interaction with MPM2 antigens ([1]; protein phosphorylated by PKA before binding): not affected by PKA phosphorylation
- PPlase Activity (%) (peptide substrate): 96%

Substance: NVSSTGSIDMVDS (also: phosphoserine, place not given here) [pS-416]
- Binding (OD@405 nm), tau peptides (Pin1): 0.00 OD@405 nm

Substance: SIDMVDSPQLATL (also: phosphorylated Ser, place not given here) [pS-422]
- Binding (OD@405 nm), tau peptides (Pin1): 0.00 OD@405 nm

Substance: KEVDAAVTPEERHLS [T-668]
- Binding (OD@405 nm), Amyloid Precursor Protein Peptide (Pin1): 0.00 OD@405 nm

From patent US6495376B1, “Methods and compositions for regulating protein-protein interactions” (Beth Israel Deaconess Medical Center, priority 1999, dated 2002)
